Structures can show the parent of a compound that is named as a salt.
Columns and labels:
PPARγ = target: T1, PPARγ (Homo sapiens, UniProt P37231); test: Crossover-curve PPAR transactivation test (PPARγ); assay type: cell-based; details: HeLN cells stably transfected with ERE-βGlob-Luc-SV-Neo and Gal-hPPARγ; Schild regression against reference agonist; n.a. means not active; read-out: PPARγ Kd app
T1 sequence (P37231 238-505 limits assumed): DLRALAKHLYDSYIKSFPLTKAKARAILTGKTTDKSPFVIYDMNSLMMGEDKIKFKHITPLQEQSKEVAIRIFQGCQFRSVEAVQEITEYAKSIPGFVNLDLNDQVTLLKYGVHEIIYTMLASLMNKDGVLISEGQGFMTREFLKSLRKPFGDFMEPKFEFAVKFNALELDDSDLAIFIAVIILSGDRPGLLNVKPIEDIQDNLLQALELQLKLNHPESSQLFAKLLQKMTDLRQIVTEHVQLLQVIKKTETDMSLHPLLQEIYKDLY
Method: (§1) The activation of PPAR receptors with an agonist (activator) in HeLN cells leads to the expression of a reporter gene, luciferase, which, in the presence of a substrate, generates light. The modulation of the PPAR receptors is measured by quantifying the luminescence produced after incubating the cells in the presence of a reference agonist. The ligands displace the agonist from its site. The measurement of the activity is performed by quantifying the light produced. This measurement makes it possible to determine the modulatory activity of the compounds according to the invention by determining the constant that represents the affinity of the molecule for the PPAR receptor. Since this value can fluctuate depending on the basal activity and the expression of the receptor, it is referred to as Kd apparent (KdApp in nM).
(§2) To determine this constant, “crossover curves” of the test product against a reference agonist are performed in a 96-well plate: 10 concentrations of the test product plus a concentration 0 are arranged in a line, and 7 concentrations of the agonist plus a concentration 0 are arranged in a column. This represents 88 measurement points for 1 product and 1 receptor. The remaining 8 wells are used for repeatability controls.
(§3) Measurements are also taken for total agonist controls with the same products.
(§4) The HeLN cell lines used are stable transfectants containing the plasmids ERE-βGlob-Luc-SV-Neo (reporter gene) and PPAR (α, δ, γ) Gal-hPPAR. These cells are inoculated into 96-well plates at a rate of 10 000 cells per well in 100 μl of DMEM medium without phenol red and supplemented with 10% of defatted calf serum. The plates are then incubated at 37° C. and 7% CO2 for 16 hours.
(§5) The various dilutions of the test products and of the reference ligand are added at a rate of 5 μl per well. The plates are then incubated for 18 hours at 37° C. and 7% CO2. The culture medium is removed by turning over and 100 μl of a 1:1 PBS/luciferine mixture are added to each well. After 5 minutes, the plates are read by the luminescence detector.

PPARα = target: T2, PPARα (Homo sapiens, UniProt Q07869); test: Crossover-curve PPAR transactivation test (PPARα); assay type: cell-based; details: HeLN cells stably transfected with ERE-βGlob-Luc-SV-Neo and Gal-hPPARα; Schild regression against reference agonist; n.a. means not active; read-out: PPARα Kd app
T2 sequence (Q07869 200-468 limits assumed): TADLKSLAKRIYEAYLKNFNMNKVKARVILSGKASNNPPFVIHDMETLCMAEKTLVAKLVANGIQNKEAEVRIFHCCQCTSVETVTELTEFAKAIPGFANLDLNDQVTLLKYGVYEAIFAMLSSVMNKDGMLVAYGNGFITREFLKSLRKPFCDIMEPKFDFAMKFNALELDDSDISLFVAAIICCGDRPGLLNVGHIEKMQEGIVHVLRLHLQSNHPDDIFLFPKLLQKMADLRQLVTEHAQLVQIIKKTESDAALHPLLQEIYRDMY
Method: as §1, §2, §3, §4, §5

| Molecule | Kd (PPARγ) | Kd (PPARα) |
| --- | --- | --- |
| N-{3-[5-(2,4-dioxothiazolidin-5-ylmethyl)pyrid-2-yl]benzyl}-N-methyloctanoylamide [Example 4] | 500 nM | – |
| CCCCCCCC(=O)N(C)Cc1cc(-c2ccc(C[C@H](OCC)C(=O)O)cc2)cs1 [Example 5, 2(S)-Ethoxy-3-(4-{5-[(methyloctanoylamino)methyl]thiophen-3-yl}phenyl)propanoic acid] | 0.06 nM | 4000 nM |
| CCCCCCCNC(=O)N(C)c1cccc(-c2ccc(CC(OCC)C(=O)O)cn2)c1 (stereo not shown) [Example 20, 2-Ethoxy-3-{6-[3-(3-heptyl-1-methylureido)phenyl]pyrid-3-yl}propanoic acid] | 4 nM | – |
| CCCCCCCNC(=O)N(C)c1ncc(-c2ccc(C[C@H](OCC)C(=O)O)cc2)s1 [Example 7, 2(S)-Ethoxy-3-{4-[2-(3-heptyl-1-methylureido)thiazol-5-yl]phenyl}propanoic acid] | 60 nM | 2000 nM |
| CCCCCNC(=O)N(C)c1ncc(-c2ccc(C[C@H](OCC)C(=O)O)cc2)s1 [Example 8, 2(S)-Ethoxy-3-{4-[2-(1-methyl-3-pentylureido)thiazol-5-yl]phenyl}propanoic acid] | 30 nM | – |
| CCCCCCCC(=O)N(C)Cc1ccc(-c2ccc(C[C@H](OCC)C(=O)O)cc2)s1 [Example 6, 2(S)-Ethoxy-3-(4-{5-[(methyloctanoylamino)methyl]thiophen-2-yl}phenyl)propanoic acid] | 2 nM | 1000 nM |
| CCCCCC(=O)N(C)Cc1cc(-c2ccc(C[C@H](Nc3ccccc3C(=O)c3ccccc3)C(=O)O)cc2)cs1 [Example 15, 2(S)-(2-Benzoylphenylamino)-3-(4-{5-[(hexanoylmethylamino)methyl]thiophen-3-yl}phenyl)propanoic acid] | 1000 nM | 2000 nM |
| CCCCCCCNC(=O)N(C)c1cccc(-c2ccc(C[C@H](OCC)C(=O)O)cc2)n1 [Example 10, 2(S)-Ethoxy-3-{4-[6-(3-heptyl-1-methylureido)pyrid-2-yl]phenyl}propanoic acid hydrochloride] | 0.5 nM | 120 nM |
